{
  "source": "paper PMC2736638",
  "about": "(Journal of medicinal chemistry, 2009)",
  "key": {"[1]": {"system": "HIV-1NL4-3", "test": "HIV-1NL4-3 replication inhibition assay in MT-4 lymphocytes", "assay_type": "cell-based", "conditions": "HIV-1NL4-3, MT-4 cells"}, "[2]": {"test": "Solubility", "assay_type": "physicochemical", "conditions": "qualitative"}, "[3]": {"system": "HIV-1IIIB", "test": "HIV-1IIIB replication inhibition assay in MT-2 lymphocytes", "assay_type": "cell-based", "conditions": "for TI = CC50/EC50: HIV-1IIIB, MT-2 cells"}, "[4]": {"conditions": "incubation time 0 min; 3 μM, 0.2 mg/mL human liver microsome, NADPH"}, "[5]": {"test": "in vitro", "conditions": "human, microsomes, pH 7.4"}},
  "note": "Where “and” joins values, the source holds several entries; their conditions need not be identical. Equal entries are not always repeated. Entries after “also recorded” stand apart in the source; their conditions may differ.",
  "data": [
    {"smiles": "C=C(C)[C@@H]1CC[C@]2(C(=O)N3CCC(CCCC(=O)NC)CC3)CC[C@]3(C)[C@H](CC[C@@H]4[C@@]5(C)CC[C@H](OC(=O)CC(C)(C)C(=O)O)C(C)(C)[C@@H]5CC[C@]43C)[C@@H]12", "note": "[Compound 45, N’-[N-[3β-O-(3′,3′-Dimethylsuccinyl)-lup-20(29)-en-28-oyl]-4-piperidine-butanoyl]-aminomethane]", "values": [
      {"measurement": "TI = CC50/EC50", "setting": "[1]", "value": "> 41.7"}
    ]},
    {"smiles": "C=C(COCCN1CCOCC1)[C@@H]1CC[C@]2(C(=O)NCCCCCCCC(=O)NC)CC[C@]3(C)[C@H](CC[C@@H]4[C@@]5(C)CC[C@H](O)C(C)(C)[C@@H]5CC[C@]43C)[C@@H]12", "note": "[Compound 21]", "values": [
      {"measurement": "solubility", "setting": "[2]", "value": "improved solubility; also recorded: good solubility"}
    ]},
    {"smiles": "C=C(C)[C@@H]1CC[C@]2(C(=O)N3CCC(CCCC(=O)NCCCN4CCOCC4)CC3)CC[C@]3(C)[C@H](CC[C@@H]4[C@@]5(C)CC[C@H](OC(=O)CC(C)(C)C(=O)O)C(C)(C)[C@@H]5CC[C@]43C)[C@@H]12", "note": "[Compound 48, N’-[N-[3β-O-(3′,3′-Dimethylsuccinyl)-lup-20(29)-en-28-oyl]-4-piperidine-butanoyl]-3-aminopropylmorpholine]", "values": [
      {"measurement": "TI = CC50/EC50", "setting": "[3]", "value": "3,087"}
    ]},
    {"smiles": "C=C(C)[C@@H]1CC[C@]2(C(=O)NCCCCCCCC(=O)O)CC[C@]3(C)[C@H](CC[C@@H]4[C@@]5(C)CC[C@H](O)C(C)(C)[C@@H]5CC[C@]43C)[C@@H]12", "note": "[Compound 23, N-[3β-Hydroxy-lup-20(29)-en-28-oyl]-8-aminooctanoic acid]", "values": [
      {"measurement": "Persentage of Remaining Parent Compounds (X±SD)%", "setting": "[4]", "value": 100.0, "unit": "%"}
    ]},
    {"smiles": "C=C(C)[C@@H]1CC[C@]2(C(=O)N3CCC(CCCC(=O)N4CCOCC4)CC3)CC[C@]3(C)[C@H](CC[C@@H]4[C@@]5(C)CC[C@H](OC(=O)CC(C)(C)C(=O)O)C(C)(C)[C@@H]5CC[C@]43C)[C@@H]12", "note": "[Compound 46, N’-[N-[3β-O-(3′,3′-Dimethylsuccinyl)-lup-20(29)-en-28-oyl]-4-piperidine-butanoyl]-morpholine]", "values": [
      {"measurement": "TI = CC50/EC50", "setting": "[3]", "value": "1,748"}
    ]},
    {"smiles": "C=C(C)[C@@H]1CC[C@]2(C(=O)N3CCC(CCCC(=O)O)CC3)CC[C@]3(C)[C@H](CC[C@@H]4[C@@]5(C)CC[C@H](OC(=O)CC(C)(C)C(=O)O)C(C)(C)[C@@H]5CC[C@]43C)[C@@H]12", "note": "[Compound 39, N-[3β-O-(3′,3′-Dimethylsuccinyl)-lup-20(29)-en-28-oyl]-4-piperidine butyric acid]", "values": [
      {"measurement": "TI = CC50/EC50", "setting": "[3]", "value": "1.4 ×10^3 and 1,389"}
    ]},
    {"smiles": "C=C(CBr)[C@@H]1CC[C@]2(C(=O)N[C@@H](CC(C)C)C(=O)O)CC[C@]3(C)[C@H](CC[C@@H]4[C@@]5(C)CC[C@H](OC(=O)CC(C)(C)C(=O)O)C(C)(C)[C@@H]5CC[C@]43C)[C@@H]12", "note": "[Compound 30, N-[3β-O-(3′,3′-Dimethylsuccinyl)-30-bromo-lup-20(29)-en-28-oyl]-leucine]", "values": [
      {"measurement": "TI = CC50/EC50", "setting": "[3]", "value": "3.0×10^3 and 3,022"}
    ]},
    {"smiles": "C=C(COCCN1CCOCC1)[C@@H]1CC[C@]2(C(=O)NCCCCCCCC(=O)O)CC[C@]3(C)[C@H](CC[C@@H]4[C@@]5(C)CC[C@H](O)C(C)(C)[C@@H]5CC[C@]43C)[C@@H]12", "note": "[Compound 20, N-[3β-Hydroxy-30-(2′-morpholinoethoxy)-lup-20(29)-en-28-oyl]-8-aminooctanoic acid]", "values": [
      {"measurement": "solubility", "setting": "[2]", "value": "increase in the derivative’s solubility"}
    ]},
    {"smiles": "C=C(C)[C@@H]1CC[C@]2(C(=O)N3CCC(CCCC(=O)NCCN4CCOCC4)CC3)CC[C@]3(C)[C@H](CC[C@@H]4[C@@]5(C)CC[C@H](OC(=O)CC(C)(C)C(=O)O)C(C)(C)[C@@H]5CC[C@]43C)[C@@H]12", "note": "[Compound 47, N’-[N-[3β-O-(3′,3′-Dimethylsuccinyl)-lup-20(29)-en-28-oyl]-4-piperidine-butanoyl]-2-aminoethylmorpholine]", "values": [
      {"measurement": "TI = CC50/EC50", "setting": "[3]", "value": "2,473"}
    ]},
    {"smiles": "C=C(C)[C@@H]1CC[C@]2(C(=O)NCCCCCCCC(=O)N[C@@H](CC(C)C)[C@H](O)CC(=O)O)CC[C@]3(C)[C@H](CC[C@@H]4[C@@]5(C)CC[C@H](O)C(C)(C)[C@@H]5CC[C@]43C)[C@@H]12", "note": "[Compound 3b, (3R,4S)-N’-[N-[3β-hydroxylup-20(29)-en-28-oyl]-8-aminooctanoyl]-4-amino-3-hydroxy-6-methylheptanoic acid]", "values": [
      {"measurement": "TI = CC50/EC50", "setting": "[1]", "value": "> 112.4"}
    ]},
    {"smiles": "C=C(C)[C@@H]1CC[C@]2(C(=O)N3CCC(CCCC(=O)O)CC3)CC[C@]3(C)[C@H](CC[C@@H]4[C@@]5(C)CC[C@H](O)C(C)(C)[C@@H]5CC[C@]43C)[C@@H]12", "note": "[Compound 38, N-[3β-Hydroxy-lup-20(29)-en-28-oyl]-4-piperidine butyric acid]", "values": [
      {"measurement": "Persentage of Remaining Parent Compounds (X±SD)%", "setting": "[4]", "value": 100.0, "unit": "%"},
      {"measurement": "half-life", "setting": "[5]", "value": "~2.08", "unit": "h"}
    ]},
    {"smiles": "C=C(C)[C@@H]1CC[C@]2(C(=O)N[C@@H](CC(C)C)C(=O)O)CC[C@]3(C)[C@H](CC[C@@H]4[C@@]5(C)CC[C@H](O)C(C)(C)[C@@H]5CC[C@]43C)[C@@H]12", "note": "[Compound 22, N-[3β-Hydroxy-lup-20(29)-en-28-oyl]-leucine]", "values": [
      {"measurement": "EC50: concentration that inhibits HIV-1IIIB replication by 50%", "setting": "[3]; HIV-1IIIB infected MT-2 cells, averages of at least three experiments", "value": "did not exhibit antiviral replication activity"}
    ]}
  ]
}
